Source: paper PMC10460728 (Journal of Pharmacokinetics and Pharmacodynamics, 2023)
Values joined by “and” are separate entries in the source; they are usually repeats but may differ in a detail not shown here. Equal values may be shown once. Read-outs that look alike come from different tables or passages of the source.

Columns and labels:
[1] = PBPK models of enzalutamide and M2 (Simcyp)
Description: Many of the physicochemical properties and plasma protein binding data were obtained internally and also referenced from FDA documents, which are available from the FDA website. […] Accordingly, the solution formulation option in the Simcyp model was used.
The PBPK models of CYP2C8 inhibitor (gemfibrozil), CYP3A4 substrate (midazolam), and P-gp substrate (digoxin) were used from the Simcyp software library with models that were verified for their intended purpose.

[2] = target: P-gp (human MDR1) (Homo sapiens, UniProt P08183); experiment: In vitro P-gp inhibition: 3H-digoxin permeation across control and MDR1-expressing LLC-PK1 cell monolayers
Chain of P-gp (human MDR1) (P08183 whole entry): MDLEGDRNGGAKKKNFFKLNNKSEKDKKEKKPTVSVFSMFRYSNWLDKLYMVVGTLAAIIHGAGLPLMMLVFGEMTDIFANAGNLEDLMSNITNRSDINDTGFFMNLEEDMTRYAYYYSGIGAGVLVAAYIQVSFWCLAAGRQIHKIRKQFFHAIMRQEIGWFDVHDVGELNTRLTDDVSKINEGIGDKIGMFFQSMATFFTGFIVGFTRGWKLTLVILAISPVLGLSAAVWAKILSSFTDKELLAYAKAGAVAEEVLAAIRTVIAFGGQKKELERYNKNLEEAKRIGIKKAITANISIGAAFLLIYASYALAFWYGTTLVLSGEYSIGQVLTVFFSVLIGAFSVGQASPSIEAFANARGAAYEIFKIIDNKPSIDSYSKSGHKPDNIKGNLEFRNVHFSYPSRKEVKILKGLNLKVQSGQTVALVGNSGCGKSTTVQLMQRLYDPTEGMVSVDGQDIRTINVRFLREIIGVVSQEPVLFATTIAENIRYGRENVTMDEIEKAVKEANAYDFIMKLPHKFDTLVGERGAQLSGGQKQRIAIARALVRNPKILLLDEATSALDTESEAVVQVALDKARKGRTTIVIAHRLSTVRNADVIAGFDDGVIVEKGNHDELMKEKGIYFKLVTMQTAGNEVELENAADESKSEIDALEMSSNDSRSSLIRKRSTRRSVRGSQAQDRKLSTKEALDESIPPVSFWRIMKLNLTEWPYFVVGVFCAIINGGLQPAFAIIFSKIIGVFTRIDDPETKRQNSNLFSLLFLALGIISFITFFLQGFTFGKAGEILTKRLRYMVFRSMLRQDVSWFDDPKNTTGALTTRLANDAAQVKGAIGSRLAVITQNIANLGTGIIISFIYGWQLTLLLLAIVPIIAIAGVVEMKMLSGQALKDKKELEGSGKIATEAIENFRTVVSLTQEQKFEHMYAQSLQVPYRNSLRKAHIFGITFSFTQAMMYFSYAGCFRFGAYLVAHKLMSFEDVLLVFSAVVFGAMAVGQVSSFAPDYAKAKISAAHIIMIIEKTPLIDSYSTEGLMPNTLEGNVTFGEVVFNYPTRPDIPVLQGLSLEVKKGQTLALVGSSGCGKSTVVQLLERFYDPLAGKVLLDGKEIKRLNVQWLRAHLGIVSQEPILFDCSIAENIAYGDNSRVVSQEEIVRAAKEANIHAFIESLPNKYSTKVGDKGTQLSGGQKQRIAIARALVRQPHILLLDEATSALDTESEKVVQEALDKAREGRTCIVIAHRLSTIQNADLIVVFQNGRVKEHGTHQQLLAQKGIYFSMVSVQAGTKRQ
Description: MDR1-expressing cells (porcine kidney epithelial LLC-PK1 cells transfected with human MDR1 cDNA) was used. The MDR1-expressing cells were seeded at a density of 4 × 10^4 cells/insert in plates and were incubated in a CO2 incubator (37 °C, CO2: 5%) for 7 to 9 days to prepare cell monolayers. […] After incubation for 4 h at 37 °C, a 70-μL aliquot of the incubation solutions was collected as the analytical sample from the opposite compartment of that spiked with test solutions (receiver compartment). The collected samples were immediately combined with 10 mL of scintillator, and the radioactivity was counted using the LSC. Permeability coefficient (Papp) of ^3H-digoxin was calculated using the following equation: Pappcm/sec=[dQ/dt]/A/C0 where dQ/dt is the transport rate (dpm/sec); A is the membrane area (cm^2); C0 is the initial concentration (dpm/mL). The ratio of permeability coefficient (Papp ratio) was calculated from the basal to apical Papp and apical to basal Papp according to the following equation: Pappratio=BasaltoapicalPapp/ApicaltobasalPapp
Furthermore, the ratios of the Papp ratios in MDR1-expressing cells to the Papp ratios in control cells were calculated as corrected Papp ratio according to the following equation: CorrectedPappratio=PappratiooftheMDR1expressingcells/Pappratioofthecontrolcells
The % of control was calculated from the corrected Papp ratio according to the following equation: \% \,of\,control=CorrectedPappratio\,in\,the\,absence\,or\,presence\,of\,inhibitors/CorrectedPappratio\,in\,the\,absence\,of\,inhibitors×100

[3] = test system: CYP3A4
[4] = clinical; details: human, plasma, po, 160 mg; for Cmax: observed, mean
[5] = plasma; ref FDA CP review; cited from earlier work
[6] = mean
[7] = test system: CYP3A4; experiment: in vitro; details: human, freshly isolated, cultured human hepatocytes
[8] = cited from earlier work
[9] = Caco-2 passive permeability; assay type: in vitro ADME; details: human, Caco-2, pH 6.5; internal data; read-out: Papp Caco-2 passive permeability (pH6.5:7.5)
[10] = target: CYP3A4 (Homo sapiens, UniProt P08684); experiment: In vitro CYP3A4 inhibition (internal data); assay type: biochemical
Chain of CYP3A4 (Homo sapiens, UniProt P08684) (P08684 whole entry): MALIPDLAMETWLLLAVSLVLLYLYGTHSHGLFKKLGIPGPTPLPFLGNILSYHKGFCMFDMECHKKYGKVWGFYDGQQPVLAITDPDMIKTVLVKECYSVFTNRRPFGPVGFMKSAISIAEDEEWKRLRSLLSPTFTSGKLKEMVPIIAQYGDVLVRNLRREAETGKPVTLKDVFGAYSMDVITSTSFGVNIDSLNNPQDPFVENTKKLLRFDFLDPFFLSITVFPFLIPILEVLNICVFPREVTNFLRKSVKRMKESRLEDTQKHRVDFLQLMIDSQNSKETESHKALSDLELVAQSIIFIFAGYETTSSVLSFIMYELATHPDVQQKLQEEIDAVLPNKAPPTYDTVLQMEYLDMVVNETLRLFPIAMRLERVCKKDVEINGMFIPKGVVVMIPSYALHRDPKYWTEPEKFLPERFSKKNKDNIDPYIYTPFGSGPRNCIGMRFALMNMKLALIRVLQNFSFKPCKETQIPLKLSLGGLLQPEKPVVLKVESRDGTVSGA

[11] = parameters: method as in FDA CP review; details: ref FDA CP review; cited from earlier work
[12] = target: T1, OAT3 (Homo sapiens, UniProt Q8TCC7); experiment: In vitro OAT3 inhibition (internal data); assay type: cell-based
T1 sequence (Q8TCC7 1-542): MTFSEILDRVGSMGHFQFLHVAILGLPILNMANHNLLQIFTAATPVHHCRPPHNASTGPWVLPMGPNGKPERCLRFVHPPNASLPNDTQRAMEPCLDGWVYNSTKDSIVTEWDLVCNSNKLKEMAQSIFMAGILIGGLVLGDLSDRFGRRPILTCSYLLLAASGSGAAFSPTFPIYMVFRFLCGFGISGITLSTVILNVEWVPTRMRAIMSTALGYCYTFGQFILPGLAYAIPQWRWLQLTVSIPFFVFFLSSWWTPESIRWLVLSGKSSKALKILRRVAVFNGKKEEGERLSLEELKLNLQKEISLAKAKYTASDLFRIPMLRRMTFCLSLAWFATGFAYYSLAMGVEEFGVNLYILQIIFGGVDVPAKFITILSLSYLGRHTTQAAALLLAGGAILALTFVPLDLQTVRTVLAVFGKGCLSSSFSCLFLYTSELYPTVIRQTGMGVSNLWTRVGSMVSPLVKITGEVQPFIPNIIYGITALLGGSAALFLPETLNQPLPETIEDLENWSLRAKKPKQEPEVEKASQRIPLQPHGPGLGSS

[13] = target: CYP3A5 (Homo sapiens, UniProt P20815); experiment: In vitro CYP3A5 inhibition (internal data); assay type: biochemical
Chain of CYP3A5 (P20815 whole entry): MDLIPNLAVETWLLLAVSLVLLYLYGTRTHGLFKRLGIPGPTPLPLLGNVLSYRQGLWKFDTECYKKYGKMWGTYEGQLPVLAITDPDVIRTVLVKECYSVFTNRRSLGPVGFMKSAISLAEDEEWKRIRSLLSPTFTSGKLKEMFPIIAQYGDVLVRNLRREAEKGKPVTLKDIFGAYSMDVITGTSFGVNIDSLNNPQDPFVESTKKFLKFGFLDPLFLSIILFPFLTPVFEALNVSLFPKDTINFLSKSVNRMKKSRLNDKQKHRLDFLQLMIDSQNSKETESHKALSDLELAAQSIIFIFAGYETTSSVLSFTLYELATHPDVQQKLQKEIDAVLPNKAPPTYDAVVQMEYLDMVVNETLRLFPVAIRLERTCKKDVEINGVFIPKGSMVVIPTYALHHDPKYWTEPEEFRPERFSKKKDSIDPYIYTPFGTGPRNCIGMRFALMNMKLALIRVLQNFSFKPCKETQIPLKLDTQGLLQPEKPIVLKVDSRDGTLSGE

[14] = test system: CYP3A and P-gp; parameters: method as in PMID 33030266; details: assumed in model development, verified with clinical DDI studies; cited from earlier work
[15] = test system: P-gp and CYP3A; details: cited from earlier work
[16] = test system: intestinal P-gp; details: multiple-dose 600 mg rifampicin, Western blot; cited from earlier work
[17] = test system: CYP3A and P-gp; parameters: method as in PMID 33030266; details: assumed in model development, verified with clinical DDI studies; cited from earlier work; remark: listed apart in the source
[18] = test system: P-gp; experiment: P-gp mRNA induction in cultured human hepatocytes; assay type: cell-based
[19] = test system: CYP1A2; details: human, hepatocytes, 50 µmol/L
[20] = test system: CYP1A2; experiment: CYP1A2 mRNA induction in cultured human hepatocytes
[21] = test system: CYP2C19; experiment: CYP2C19 mRNA induction in cultured human hepatocytes
[22] = test system: CYP2C8; experiment: CYP2C8 mRNA induction in cultured human hepatocytes
[23] = test system: CYP2C9; experiment: CYP2C9 mRNA induction in cultured human hepatocytes
[24] = test system: CYP2B6; experiment: CYP2B6 mRNA induction in cultured human hepatocytes
[25] = retrograde calculation from CLpo 0.60 L/h
[26] = once-daily oral 160 mg enzalutamide for 49 days
[27] = single oral 160 mg enzalutamide
[28] = 100 µmol/L (enzalutamide, M2: two lots of hepatocyte)
[29] = 3H-digoxin 1 µmol/L, additive 0.1 µmol/L
[30] = 3H-digoxin 1 µmol/L, additive 0.3 µmol/L
[31] = 3H-digoxin 1 µmol/L, additive 1 µmol/L
[32] = 3H-digoxin 1 µmol/L, additive 3 µmol/L
[33] = 3H-digoxin 1 µmol/L, additive 10 µmol/L
[34] = 3H-digoxin 1 µmol/L, additive 25 µmol/L

With `CNC(=O)c1ccc(N2C(=S)N(c3ccc(C#N)c(C(F)(F)F)c3)C(=O)C2(C)C)cc1F` [Enzalutamide] the “CYP3A4 CLint for M2 formation” value ([1]; PBPK model parameter, see text) was 0.002312 mL/min/pmol enzyme, the “Peff,man” value ([1]; calculated from Caco-2 passive permeability calibrated to propranolol) was 5.15 10^–4 cm/s and the “Contribution of CYP2C8 on enzalutamide elimination” value ([1]; estimated from clinical DDI study with gemfibrozil) was 87%. For the same compound, the “CYP2C8 CLint for M2 formation” value [1, 25] was 0.1518 mL/min/pmol enzyme, the “CYP2C8 CLint for other pathway” value [1, 25] was 0.07475 mL/min/pmol enzyme and the “CYP3A4 CLint for other pathway” value [1, 25] was 0.003617 mL/min/pmol enzyme. The IC50 [2] was 1670 nM, the Ki [2] was 1670 nM and the “Indmax on CYP3A4, calibrated” value ([3]; calibrated with positive control rifampicin, Simcyp input) was 11.43. It also gave an AUC [4] of 322 µg·h/mL, an AUC(0-inf) [4] of 288 µg·h/mL and a Tmax [4] of 0.75 h. For the same compound, the half-life [4] was 77.7 h, the Cmax [4, 26] was 16600 ng/mL and the Cmax [4, 27] was 5660 ng/mL. For the same compound, the fu [5] was 0.0244, the “Cmin, observed” value [6, 26] was 12000 ng/mL and the EC50 [7] was 1500 nM. For the same compound, the Vss ([8]; PBPK model parameter) was 0.967 L/kg, the “Estimated bioavailability based on mass balance data” value ([8]; oral) was ≥ 84% and the Papp [9] was 31 ×10⁻⁶ cm/s. For the same compound, the Ki [10] was 42000 nM, the “Log P” value [11] was 2.98 and the Ki [12] was 15100 nM. The Ki [13] was 42000 nM.
For `O=C(NC[C@H]1CN(c2ccc(N3CCOCC3=O)cc2)C(=O)O1)c1ccc(Cl)s1` [Rivaroxaban, rivaroxaban], the “Contribution of CYP3A to hepatic metabolism” value [14] is given as 61% and the “Decrease in AUC by rifampicin” value ([15]; rivaroxaban) is given as 49%.
In the case of `CO[C@H]1/C=C/O[C@@]2(C)Oc3c(C)c(O)c4c(O)c(c(/C=N/N5CCN(C)CC5)c(O)c4c3C2=O)NC(=O)/C(C)=C\C=C\[C@H](C)[C@H](O)[C@@H](C)[C@@H](O)[C@@H](C)[C@H](OC(C)=O)[C@@H]1C` [Rifampicin, rifampicin], the “Increase in intestinal P-gp expression” value [16] is given as 3.5 fold.
In the case of `COc1ccc(-n2nc(C(N)=O)c3c2C(=O)N(c2ccc(N4CCCCC4=O)cc2)CC3)cc1` [Apixaban, apixaban], the “Contribution of CYP3A to hepatic metabolism” value [17] is given as 42% and the “Decrease in AUC by rifampicin” value ([15]; apixaban) is given as 54%.
For `COc1ccc2[nH]c([S+]([O-])Cc3ncc(C)c(OC)c3C)nc2c1` (stereo not drawn) [Omeprazole, omeprazole, reference compound], the “Fold increase P-gp mRNA” value ([18]; 50 µmol/L) was 2.38 ± 1.68 fold and the “Fold increase CYP1A2 mRNA” value [19] was 46.4 ± 7.2 fold.
In the case of `CC1(C)C(=O)N(c2ccc(C#N)c(C(F)(F)F)c2)C(=S)N1c1ccc(C(N)=O)c(F)c1` [M2, N-desmethyl enzalutamide], the “CLint,HLM” value ([1]; PBPK model parameter, see text) is reported as 1.399 μL/min/mg protein, the “CYP3A4 contribution to M2 elimination” value ([1]; set to recover M2 exposure after multiple doses of enzalutamide) is reported as 9% and the “Fold increase P-gp mRNA” value ([18]; 1 µmol/L) is reported as […]. For the same compound, the “Fold increase P-gp mRNA” value ([18]; 10 µmol/L) was […], the “Fold increase P-gp mRNA” value [18, 28] was […] and the “Control cells Papp ratio” value [2, 29] was […]. The “Corrected Papp ratio” value [2, 29] was […], the “MDR1-expressing cells Papp ratio” value [2, 29] was […] and the “Control cells Papp ratio” value [2, 30] was […]. The “Corrected Papp ratio” value [2, 30] was […], the “MDR1-expressing cells Papp ratio” value [2, 30] was […] and the “Control cells Papp ratio” value [2, 31] was […]. The “Corrected Papp ratio” value [2, 31] was […], the “MDR1-expressing cells Papp ratio” value [2, 31] was […] and the “Control cells Papp ratio” value [2, 32] was […]. The “Corrected Papp ratio” value [2, 32] was […], the “MDR1-expressing cells Papp ratio” value [2, 32] was […] and the “Control cells Papp ratio” value [2, 33] was […]. The “Corrected Papp ratio” value [2, 33] was […], the “MDR1-expressing cells Papp ratio” value [2, 33] was […] and the “Control cells Papp ratio” value [2, 34] was […]. The “Corrected Papp ratio” value [2, 34] was […], the “MDR1-expressing cells Papp ratio” value [2, 34] was […] and the IC50 ([2]; read-out: IC50 (P-gp-mediated 3H-digoxin transport), 3H-digoxin 1 µmol/L, MDR1-expressing LLC-PK1 cells) was 1090 nM. For the same compound, the Ki ([2]; read-out: Ki on P-gp, IC50 regarded as Ki, PBPK model input) was 1090 nM, the “Fold increase CYP3A4 mRNA” value ([3]; 1 µmol/L) was […] and the “Fold increase CYP3A4 mRNA” value ([3]; 10 µmol/L) was […]. For the same compound, the “Fold increase CYP3A4 mRNA” value ([3]; hepatocytes) was […], the “Indmax on CYP3A4, calibrated” value ([3]; hepatocytes) was […] and the “Indmax (maximal fold induction) CYP3A4” value ([3]; mRNA, human hepatocytes) was […]. For the same compound, the EC50 ([3]; read-out: IndC50 CYP3A4, mRNA, human hepatocytes) was […], the fu [5] was 0.0467 and the “AUCtau, observed” value [6, 26] was 278.3 µg·h/mL. The “Cmax, observed” value [6, 26] was 12680 ng/mL, the “Cmin, observed” value [6, 26] was 10570 ng/mL and the “MPR (MWC), observed” value [6, 26] was 0.913. For the same compound, the “AUCinf, observed” value [6, 27] was 395 µg·h/mL, the “Cmax, observed” value [6, 27] was 887 ng/mL and the “t1/2, observed” value [6, 27] was 179 h. For the same compound, the “Fold increase CYP1A2 mRNA” value ([20]; 1 µmol/L) was […], the “Fold increase CYP1A2 mRNA” value ([20]; 10 µmol/L) was […] and the “Fold increase CYP1A2 mRNA” value [20, 28] was […]. The “Fold increase CYP2C19 mRNA” value ([21]; 1 µmol/L) was […], the “Fold increase CYP2C19 mRNA” value ([21]; 10 µmol/L) was […] and the “Fold increase CYP2C19 mRNA” value [21, 28] was […]. For the same compound, the “Fold increase CYP2C8 mRNA” value ([22]; 1 µmol/L) was […], the “Fold increase CYP2C8 mRNA” value ([22]; 10 µmol/L) was […] and the “Fold increase CYP2C8 mRNA” value [22, 28] was […]. For the same compound, the Ki [12] was 11500 nM, the “Fold increase CYP2C9 mRNA” value ([23]; 1 µmol/L) was […] and the “Fold increase CYP2C9 mRNA” value ([23]; 10 µmol/L) was […]. For the same compound, the “Fold increase CYP2C9 mRNA” value [23, 28] was […], the “Fold increase CYP2B6 mRNA” value ([24]; 1 µmol/L) was […] and the “Fold increase CYP2B6 mRNA” value ([24]; 10 µmol/L) was […]. For the same compound, the “Fold increase CYP2B6 mRNA” value [24, 28] was […].
